#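 Method: 48-hour compound exposure of cells in 96-well plates, five concentrations, linear interpolation of endpoints. Abbreviation: GI50, concentration required for 50% inhibition of growth. At the TGI there is no net growth.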
# Key:
# Experiment in all cases: inhibition of tumour cell growth, NCI panel, 48 h
# [1] = system: SR leukemia
# [2] = system: SK-MEL-5 melanoma
# [3] = system: SN12C renal
# [4] = system: MDA-MB-231 breast
# [5] = system: MOLT-4 leukemia
# [6] = system: HOP-62 NSCLC
# [7] = system: OVCAR-5 ovarian
# [8] = system: MCF7 breast
# [9] = system: SK-MEL-28 melanoma
# [10] = system: SK-MEL-2 melanoma
# [11] = system: M14 melanoma
# [12] = system: EKVX NSCLC
# [13] = system: ACHN renal
# [14] = system: SF-268 CNS
# [15] = system: IGROV1 ovarian
# [16] = system: PC-3 prostate
# [17] = system: NCI-H460 lung
# [18] = system: UACC-257 melanoma
# [19] = system: HL-60(TB) leukemia
# [20] = system: CCRF-CEM leukemia
# [21] = system: DU-145 prostate
# [22] = system: OVCAR-8 ovarian
# [23] = system: SF-295 CNS
# [24] = system: A549 NSCLC
# [25] = system: SK-OV-3 ovarian
# [26] = system: KM12 colon
# [27] = system: HOP-92 NSCLC
# [28] = system: BT-549 breast
# [29] = system: OVCAR-3 ovarian
# [30] = system: MALME-3M melanoma
# [31] = system: 786-0 renal
# [32] = system: SW-620 colon
# [33] = system: NCI-H522 lung
# [34] = system: HCT-15 colon
# [35] = system: COLO 205 colon
# [36] = system: SF-539 CNS
# [37] = system: K-562 leukemia
# [38] = system: NCI-H23 lung
# [39] = system: NCI-H226 lung
# [40] = system: A498 renal
# [41] = system: HCT-116 colon
# [42] = system: OVCAR-4 ovarian
# [43] = system: CAKI-1 renal
# [44] = system: LOX IMVI melanoma
# [45] = system: T-47D breast
# [46] = system: MDA-MB-435
# [47] = system: RXF 393 renal
# [48] = system: MDA-N
# [49] = system: TK-10 renal
# [50] = system: SNB-19 CNS
# [51] = system: UO-31 renal
# [52] = system: HCC-2998 colon
# [53] = system: RPMI-8226 leukemia
# [54] = system: HS 578T breast
# [55] = system: NCI/ADR-RES ovarian
# [56] = system: U251 CNS
# [57] = system: HT29 colon
# [58] = system: UACC-62 melanoma
# [59] = system: SNB-75 CNS
structure (smiles),measurement,setting,value
CC[C@H]1C=CCC[C@@]2(C[C@@H]3CC[C@@H]4[C@H](C(=O)OCCCCCCCCCCCCCCCC(=O)N(CCCNC(C)=O)C[C@H](CCNC(C)=O)OC(C)=O)[C@]5(CCC[C@@H](C)O5)NC(=[N+]34)N2)O1,TGI,[1],416 nM
same,TGI,[2],647 nM
same,TGI,[3],2100 nM
same,TGI,[4],1930 nM
same,TGI,[5],1660 nM
same,TGI,[6],1840 nM
same,TGI,[7],1800 nM
same,TGI,[8],1370 nM
same,TGI,[9],2520 nM
same,TGI,[10],338 nM
same,TGI,[11],340 nM
same,TGI,[12],1890 nM
same,TGI,[13],1370 nM
same,TGI,[14],1140 nM
same,TGI,[15],1900 nM
same,TGI,[16],1180 nM
same,TGI,[17],1140 nM
same,TGI,[18],291 nM
same,TGI,[19],1340 nM
same,TGI,[20],46.9 nM
same,TGI,[21],1590 nM
same,TGI,[22],2480 nM
same,TGI,[23],1460 nM
same,TGI,[24],1360 nM
same,TGI,[25],2730 nM
same,TGI,[26],1750 nM
same,TGI,[27],320 nM
same,TGI,[28],2930 nM
same,TGI,[29],2030 nM
same,TGI,[30],568 nM
same,TGI,[31],426 nM
same,TGI,[32],2140 nM
same,TGI,[33],287 nM
same,TGI,[34],2780 nM
same,TGI,[35],955 nM
same,TGI,[36],1590 nM
same,TGI,[37],3810 nM
same,TGI,[38],2930 nM
same,TGI,[39],1880 nM
same,TGI,[40],1090 nM
same,TGI,[41],1240 nM
same,TGI,[42],1840 nM
same,TGI,[43],1860 nM
same,TGI,[44],70.9 nM
same,TGI,[45],2770 nM
same,TGI,[46],545 nM
same,TGI,[47],1020 nM
same,TGI,[48],1360 nM
same,TGI,[49],2070 nM
same,TGI,[50],2220 nM
same,TGI,[51],2460 nM
same,TGI,[52],221 nM
same,GI50,[53],40.6 nM
same,TGI,[53],242 nM
same,TGI,[54],1720 nM
same,TGI,[55],8180 nM
same,TGI,[56],1110 nM
same,TGI,[57],998 nM
same,TGI,[58],246 nM
Nc1ncnc2nn(C3OC(CO)C(O)C3O)nc12 (stereo not drawn),TGI,[1],16000 nM
same,TGI,[2],39700 nM
same,TGI,[3],> 68500 nM
same,TGI,[4],> 25200 nM
same,TGI,[5],> 66200 nM
same,TGI,[6],46500 nM
same,TGI,[7],> 95300 nM
same,TGI,[8],> 62300 nM
same,TGI,[9],> 100000 nM
same,TGI,[10],17500 nM
same,TGI,[11],> 62800 nM
same,TGI,[12],> 100000 nM
same,TGI,[13],49300 nM
same,TGI,[14],> 100000 nM
same,TGI,[15],39100 nM
same,TGI,[16],> 67600 nM
same,TGI,[17],25300 nM
same,TGI,[18],> 87100 nM
same,TGI,[19],23600 nM
same,TGI,[20],> 67000 nM
same,TGI,[21],> 45400 nM
same,TGI,[22],> 100000 nM
same,TGI,[23],> 89300 nM
same,TGI,[24],> 64000 nM
same,TGI,[25],16600 nM
same,TGI,[26],> 100000 nM
same,TGI,[59],54100 nM
same,TGI,[27],> 100000 nM
same,TGI,[28],> 100000 nM
same,TGI,[29],> 41100 nM
same,TGI,[30],> 100000 nM
same,TGI,[31],> 100000 nM
same,TGI,[32],> 100000 nM
same,TGI,[33],> 100000 nM
same,TGI,[34],45300 nM
same,TGI,[35],15800 nM
same,TGI,[36],58500 nM
same,TGI,[37],> 100000 nM
same,TGI,[38],67900 nM
same,TGI,[39],40500 nM
same,TGI,[40],> 59600 nM
same,TGI,[41],39100 nM
same,TGI,[42],> 100000 nM
same,TGI,[43],> 100000 nM
same,TGI,[44],23000 nM
same,TGI,[45],> 44500 nM
same,TGI,[46],> 90000 nM
same,TGI,[47],> 23100 nM
same,TGI,[48],> 82600 nM
same,TGI,[49],> 35400 nM
same,TGI,[50],99100 nM
same,TGI,[51],49000 nM
same,TGI,[52],32800 nM
same,TGI,[53],26500 nM
same,TGI,[54],> 100000 nM
same,TGI,[55],> 86800 nM
same,TGI,[56],> 81600 nM
same,TGI,[57],> 100000 nM
same,TGI,[58],> 100000 nM

# Reference: PubChem BioAssay (NCI)
